This passage reports Ki results from BindingDB's records for doi:10.1016/s0960-894x(00)00170-0 (Merck Research Laboratories, 2000).

For this assay, the target named is Thrombin (Homo sapiens). Briefly: The compound was tested for its ability to inhibit thrombin.

In turn, `Cc1nc(N)ccc1CNC(=O)Cn1c(C)cc2c(c1=O)NC(=O)[C@](C)(CC(C)C)C2` [N-(6-Amino-2-methyl-pyridin-3-ylmethyl)-2-((R)-3-isobutyl-3,6-dimethyl-2,8-dioxo-2,3,4,8-tetrahydro-1H-[1,7]naphthyridin-7-yl)-acetamide] registered a Ki of 0.24 nM.

The term Ki denotes the dissociation constant of the complex between target and ligand, obtained from inhibition or displacement. Higher therefore signals lower affinity.
